From patent US20100254928A1, “NOVEL COMPOSITION CONTAINING OZONIZED SURFACTANT” (priority 2007, published 2010)

Columns and labels:
[1] = Temporal change in oxidizing property (iodine titration method); format: physicochemical; conditions: 25° C.
From the text: After deaerating the obtained aqueous ozonized surfactant solution to remove dissolved ozone gas by helium purging, the oxidizing property of the aqueous ozonized surfactant solution can be determined by the iodine titration method (see Non Patent Literature 1). Whether or not the aqueous ozonized surfactant solution maintains a function as a surfactant can be evaluated by checking whether or not frothing, which is a characteristic of surfactants, occurs when the solution is agitated or vibrated.
Meanwhile, oxygen was supplied from an oxygen cylinder into an ozonizer (ozonizer GR-RB made by Sumitomo Precision Products Co., Ltd.) at an oxygen flow rate of 0.3 L/min to ozonize the oxygen to produce ozone gas. Then, the ozone gas was dissolved in the above-described aqueous solution in a dissolving module (SEK model made by ERC Technology), and the aqueous solution was circulated at a flow rate of 1 L/min. […] Further, in 30 minutes, the concentration increased to 25 ppm (see FIG. 2). After deaerating the aqueous solution that had undergone about 30-minute ozone treatment to remove dissolved ozone gas by helium purging, oxidizing property of the aqueous solution was determined by the iodine titration method. As a result, the aqueous solution had oxidizing property, and frothing, which is a characteristic of surfactants, was observed. The results confirmed that ozonized Tween 80 had been produced. Further, a temporal change in the oxidizing property of the aqueous solution was determined by the iodine titration method at 25° C. for 20 days. As a result, the percentage of oxidizing property measured after 20 days to that measured just after preparation was 109%.
The solution A was diluted to a 1% aqueous solution, and a temporal change in the oxidizing property of the aqueous solution was determined by the iodine titration method at 25° C. for 700 days. As a result, the percentage of oxidizing property measured after 700 days to that measured just after preparation was 101%.

slug = assay: Insecticidal activity: test of killing slugs; format: in vivo; conditions: 1% aqueous solution, 2 pushes: 1.88 mL sprayed from 15 cm above
Experimental: In order to check the insect control performance of the ozonized surfactant, a test of killing slugs was performed. A slug was put into a glass petri dish. Onto the slug, a 1% aqueous solution of the ozonized surfactant obtained in Example 4, 5, 7, 9 or 10 (2 pushes: 1.88 mL) was sprayed from 15 cm above. After that, the time elapsed until the slug died (the motion stopped) was measured. As a control, the same evaluation was simultaneously performed with a commercial insecticide (product name: NEW Namekuji (slug) Spray, made by Sumitomo Chemical Garden Products Inc., Lot No. 11.05 0806JE) containing a natural substituted phenol, a copper compound and an alcohol, as active ingredients.

[2] = tested on: mold (filamentous fungus); assay: Evaluation of antiseptic activity in thickener solution; format: cell-based; conditions: 0.1% in 3.5% Carbopol ETD2020 aqueous solution, 25° C.
Experimental: In order to check the antiseptic performance of ozonized surfactants, the ozonized surfactants were added to a substance susceptible to mold. […] Into a 100 mL-glass bottle, 50 mL of the sample was charged. The bottles were kept at 25° C. in a thermostatic air chamber, and temporal changes were visually observed. […] The mold-like material was removed and examined under a 700-power microscope. As a result, spores were detected and the material was identified as a filamentous fungus. The above results confirmed the antiseptic activity of the ozonized surfactants.

Arge pagana larva = assay: Insecticidal activity: test of killing other insects; format: in vivo; conditions: 2% aqueous solution, 1.88 mL sprayed
Experimental: (§1) In order to check the insect control performance of the ozonized surfactant, a test of killing other insects was performed. An Orgyia thyellina larva, a Sphrageidus similis larva, and an Arge pagana larva were put into separate glass petri dishes. Onto each insect pest, a 2% aqueous solution of the solution obtained in Example 5 (2 pushes: 1.88 mL) was sprayed from 15 cm above. After that, the time elapsed until each insect died (the motion stopped) was measured.

[3] = tested on: Sphrageidus similis larva; assay: as above; format: in vivo; conditions: 2% aqueous solution, 1.88 mL sprayed
Experimental: as §1

Orgyia thyellina larva = assay: as above; format: in vivo; conditions: 2% aqueous solution, 1.88 mL sprayed
Experimental: as §1

[4] = Surface-active property test (contact angle); format: physicochemical
Experimental: The surface-active properties of ozonized surfactants were determined in the following manner. Aqueous solutions each containing 1% Tween 80, POE (10 EO) oleyl ether or POE (20 EO) oleyl ether (all of which were made by Wako Pure Chemical Industries, Ltd.) were prepared. Each solution was dropped on a polyvinyl chloride plate and measured for a contact angle (θ) with the use of a contact angle meter CA-VP (made by Kyowa Interface Science Co., Ltd.). The same measurement was carried out for a 1% aqueous solution of the ozonized surfactant obtained in Example 1, 4, or 8.

insects such as ants = assay: Repellent activity (Test Example 14); format: in vivo, pill bug; conditions: 2 mL of 1% aqueous solution on tissue paper with 1 g honey, 8 hours
Experimental: The repellent performance of the ozonized surfactant of the present invention was checked. […] In addition, 1 g of honey was instilled into the center. […] These specimens were placed on leaf mold in a flower bed, and the conditions were observed 8 hours later.

## Ozonized POE (20 EO) oleyl ether [Example 8]
[1]; 1% aqueous solution, 300 days
  percentage of oxidizing property measured after 300 days to that measured just after preparation: 100%

## Ozonized polyethylene glycol monooleate [Example 5]
slug
  Death time of slug: 729 s
[2]
  Antiseptic activity of thickener soln. (visually observed), 1 month after: Good
  Antiseptic activity of thickener soln. (visually observed), 1 week after: Good
Arge pagana larva
  Death time: 115 s
[3]
  Death time: 130 s
Orgyia thyellina larva
  Death time: 100 s
[1]; 1% aqueous solution, 180 days
  percentage of oxidizing property measured after 180 days to that measured just after preparation: 100%

## POE (20 EO) oleyl ether
[4]; 1% aqueous solution of the ozonized surfactant obtained in Example 1, 4, or 8, on polyvinyl chloride plate
  Contact angle, After ozonization: 26.7 degree (°)
[4]; 1% aqueous solution on polyvinyl chloride plate, ion exchange water 87.3°
  Contact angle, Before ozonization: 59.4 degree (°)

## ozonized Tween 80 [Example 1]
[1]; 0.1% aqueous solution, 20 days
  percentage of oxidizing property measured after 20 days to that measured just after preparation: 109%

## decaglycerin monooleate [Decaglycerol monooleate, reference compound]
Insects such as ants
  ants gathered on the specimen: 10 ants

## Ozonized POE sorbitan monooleate (20 EO) [Example 7]
slug
  Death time of slug: 244 s
[1]; 1% aqueous solution, 700 days
  percentage of oxidizing property measured after 700 days to that measured just after preparation: 100%

## CCCCCCCC/C=C\CCCCCCCC[N+](C)(C)CCCCCCCC/C=C\CCCCCCCC.[Cl-] [Unozonized surfactant of Ex. 10, dimethyldioleylammonium chloride, reference compound]
Insects such as ants
  ants gathered on the specimen: 15 ants

## Ozonized decaglycerin monooleate [Example 6]
Insects such as ants
  insects gathered on the specimen: did not gather at all
[2]
  Antiseptic activity of thickener soln. (visually observed), 1 month after: Good
  Antiseptic activity of thickener soln. (visually observed), 1 week after: Good
